Here are results for ten compounds from ChEMBL document CHEMBL4184283, “High expression of class III β-tubulin has no impact on functional cancer cell growth inhibition of a series of key vinblastine analogs” (Bioorg Med Chem Lett, 2018).

One assay relates to A549. The assay can be described thus: Growth inhibition of human A549 cells. In kind it is functional, cell-based.
The nature of assay [1]: Growth inhibition of human A549-T24 cells over-expressing class-3 beta-tubulin. In kind it is functional.
Assay [2] is described as follows: Selectivity ratio of IC50 for human A549-T24 cells over-expressing class-3 beta-tubulin to IC50 for human A549 cells. The class given is functional.
Assay [3] can be described thus: Selectivity ratio of IC50 for human HCT116/VM46 cells over-expressing P-gp to IC50 for human HCT116 cells. In kind it is functional.
In the next assay the test system is HCT-116. Kind of assay: Growth inhibition of human HCT116 cells after 72 hrs by phosphatase assay. The class given is functional, cell-based. As to conditions: HCT-116, 72 h.
In another assay the test system is L1210. Kind of assay: Growth inhibition of mouse L1210 cells after 72 hrs by phosphatase assay. The class given is functional, cell-based. The conditions noted are these: L1210, 72 h.
Another assay concerns HCT-116/VM46. The assay can be described thus: Growth inhibition of human HCT116/VM46 cells over-expressing P-gp after 72 hrs by phosphatase assay. As to conditions: HCT-116/VM46, 72 h. In kind it is functional, cell-based.

Each structure is given as a SMILES string.

In the case of `CC[C@]1(O)C[C@H]2CN(CCc3c([nH]c4ccc(F)cc34)[C@@](C(=O)OC)(c3cc4c(cc3OC)N(C)[C@H]3[C@@](O)(C(=O)OC)[C@H](OC(C)=O)[C@]5(CC)C=CCN6CC[C@]43[C@@H]65)C2)C1`, the values for the IC50 (in the assay on A549; in assay [1]) were 2.9 nM and 0.8 nM, respectively. The “Ratio IC50” value in assay [2] is reported as under 1; in assay [3], 100.

Turning to `CC[C@]1(NC(=O)c2ccc3c(c2)CCCC3)C[C@H]2CN(CCc3c([nH]c4ccc(F)cc34)[C@@](C(=O)OC)(c3cc4c(cc3OC)N(C)[C@H]3[C@@](O)(C(=O)OC)[C@H](OC(C)=O)[C@]5(CC)C=CCN6CC[C@]43[C@@H]65)C2)C1`, the half-inhibitory concentration (IC50) in the assay with A549 turned out to be 7.6 nM; with HCT-116 it was 4.9 nM; with L1210 it was 3 nM; in assay [1], 6.5 nM; in the assay with HCT-116/VM46, 8.7 nM. Moreover, the results for the “Ratio IC50” value in assay [2] and in assay [3] were under 1 and 1.8, respectively.

Take `CC[C@]1(NC(=O)c2ccc3c(c2)CCCO3)C[C@H]2CN(CCc3c([nH]c4ccc(F)cc34)[C@@](C(=O)OC)(c3cc4c(cc3OC)N(C)[C@H]3[C@@](O)(C(=O)OC)[C@H](OC(C)=O)[C@]5(CC)C=CCN6CC[C@]43[C@@H]65)C2)C1`: the IC50 in the assay with A549 is 1.4 nM; in the assay with HCT-116, 0.5 nM; in the assay with L1210, 0.4 nM; in assay [1] it was 0.8 nM; in the assay on HCT-116/VM46, 1.8 nM. Moreover, the “Ratio IC50” value is under 1 in assay [2] and 3.8 in assay [3].

As to `CC[C@]1(NC(=O)N2Cc3ccc(NC(=O)c4cccnn4)cc3C2)C[C@H]2CN(CCc3c([nH]c4ccc(F)cc34)[C@@](C(=O)OC)(c3cc4c(cc3OC)N(C)[C@H]3[C@@](O)(C(=O)OC)[C@H](OC(C)=O)[C@]5(CC)C=CCN6CC[C@]43[C@@H]65)C2)C1`, the IC50 is 0.53 nM with A549; 0.07 nM in the assay with HCT-116; 0.06 nM with L1210; 0.26 nM in assay [1]; 0.87 nM in the assay on HCT-116/VM46. The “Ratio IC50” value was under 1 in assay [2] and 12 in assay [3].

As to `CC[C@]1(NC(=O)N2Cc3ccccc3C2)C[C@H]2CN(CCc3c([nH]c4ccc(F)cc34)[C@@](C(=O)OC)(c3cc4c(cc3OC)N(C)[C@H]3[C@@](O)(C(=O)OC)[C@H](OC(C)=O)[C@]5(CC)C=CCN6CC[C@]43[C@@H]65)C2)C1`, the IC50 in the assay on A549 worked out at 0.7 nM; in the assay on HCT-116 it was 0.6 nM; in the assay with L1210, 0.5 nM; in assay [1] it was 0.7 nM; in the assay with HCT-116/VM46, 7.5 nM. Moreover, the “Ratio IC50” value in assay [2] is 1; in assay [3], 12.

With `CC[C@]1(NC(=O)N2Cc3ccc(NC(=O)c4cnccn4)cc3C2)C[C@H]2CN(CCc3c([nH]c4ccc(F)cc34)[C@@](C(=O)OC)(c3cc4c(cc3OC)N(C)[C@H]3[C@@](O)(C(=O)OC)[C@H](OC(C)=O)[C@]5(CC)C=CCN6CC[C@]43[C@@H]65)C2)C1`, the IC50 in the assay with A549 is 0.19 nM; with HCT-116, 0.07 nM; with L1210 it was 0.06 nM; in assay [1], 0.09 nM; in the assay on HCT-116/VM46, 0.83 nM. Also, the “Ratio IC50” value in assay [2] is under 1; in assay [3] it was 12.

Consider `CC[C@]1(NC(=O)N2Cc3ccc(NC(=O)c4ccncn4)cc3C2)C[C@H]2CN(CCc3c([nH]c4ccc(F)cc34)[C@@](C(=O)OC)(c3cc4c(cc3OC)N(C)[C@H]3[C@@](O)(C(=O)OC)[C@H](OC(C)=O)[C@]5(CC)C=CCN6CC[C@]43[C@@H]65)C2)C1`, for which the IC50 with A549 stood at 0.17 nM; in the assay on HCT-116, 0.07 nM; in the assay with L1210 it was 0.06 nM; in assay [1] it was 0.13 nM; with HCT-116/VM46, 0.88 nM. Also, the “Ratio IC50” value in assay [2] was under 1; in assay [3] it was 13.

Regarding `CC[C@]1(NC(=O)c2ccc(C)c(C)c2)C[C@H]2CN(CCc3c([nH]c4ccc(F)cc34)[C@@](C(=O)OC)(c3cc4c(cc3OC)N(C)[C@H]3[C@@](O)(C(=O)OC)[C@H](OC(C)=O)[C@]5(CC)C=CCN6CC[C@]43[C@@H]65)C2)C1`, the IC50 was 5 nM in the assay with A549; 4.5 nM with HCT-116; 3 nM with L1210; 2.5 nM in assay [1]; 7.6 nM in the assay on HCT-116/VM46. Further, the “Ratio IC50” value is under 1 in assay [2] and 1.7 in assay [3].

As to `CC(=O)O[C@H]1C(=O)[C@@]2(C)[C@H]([C@H](OC(=O)c3ccccc3)[C@]3(O)C[C@H](OC(=O)[C@H](O)[C@@H](NC(=O)c4ccccc4)c4ccccc4)C(C)=C1C3(C)C)[C@]1(OC(C)=O)CO[C@@H]1C[C@@H]2O` [PACLITAXEL], the figures for the IC50 (in the assay with A549; in assay [1]; with HCT-116/VM46) were 7.1 nM, 70 nM and over 200 nM, respectively. Moreover, the figures for the “Ratio IC50” value in assay [2] and in assay [3] were 10 and over 50, respectively.

Turning to `CC[C@]1(O)C[C@@H]2CN(CCc3c([nH]c4ccccc34)[C@@](C(=O)OC)(c3cc4c(cc3OC)N(C)[C@H]3[C@@](O)(C(=O)OC)[C@H](OC(C)=O)[C@]5(CC)C=CCN6CC[C@]43[C@@H]65)C2)C1` [VINBLASTINE], the IC50 in the assay with A549 was 7.7 nM; in assay [1], 6.7 nM. Also, the “Ratio IC50” value in assay [2] is given as under 1.
